Values joined by “and” are separate entries in the source; they are usually repeats but may differ in a detail not shown here. Equal entries are not always repeated.
What was measured:
[1] = test system: cultured PBMCs of the allergic donors; experiment: ELISPOT of IL-5 or IFNg production by cultured PBMCs of TG allergic donors in response to peptide; format: cell-based, human; conditions: for NTGA's containing at least one T cell epitope, Th+ (Col 2): NTGA number given = criterion met, TG allergic donors n=20; for No of PG+ & th+ peptides per NTGA / No of PP & Th+ peptides per NTGA: Table 6; for No of PG+ & th+ peptides per NTGA: PG+ peptides recognized by T cells of grass allergic donors (n=20); for No of PP & Th+ peptides per NTGA: PP peptides recognized by T cells of grass allergic donors (n=20); for # Th+: Table 7, peptides per NTGA recognized by T cells of grass allergic donors (n=20)
Text: Table 1 indicates for each of the 397 PG+ peptides in which non-grass pollen species a matching peptide with either less than 3, less than 2 or zero mismatches are found. The number of TG grass allergic donors (n=20) with an in vitro T cell response to the TG peptide sequence is also shown.
A set of 93 proteins from Timothy grass (TG) pollen and the assembly of 822 peptides (15 mers) predicted to promiscuously bind HLA class II molecules shown in Table 9 and the immune reactivity in allergic donors have been reported in PCT application WO 2013/119863. […] Immune reactivity was determined by the production of IL-5 or IFNg from cultured PBMCs of the allergic donors in response to stimulation with a peptide and IL-5 and IFNg were measured by ELISPOT as described in Oseroff C et al, 2010.
In short, T cell immune reactivity was determined using PBMCs isolated from study participants and stored in liquid nitrogen until further use. For experimental testing, PBMCs were thawed and expanded in vitro with TG pollen extract (50 μg/mL) or the peptide pool ([…]). The TG extract and peptide pools had each been previously titrated to determine optimal stimulation concentrations.
Cytokine production by cultured PBMCs in response to antigen stimulation was measured by ELISPOT. Cells (1×10^5 cells/well) were plated and incubated with peptide (10 μg/mL), the peptide pool (5 μg/mL), or the TG extract (50 μg/mL). Phytohaemagglutinin (10 μg/mL) and medium alone were used as positive and negative controls, respectively. Samples were considered to produce a cytokine if 100 spot-forming cells (SFCs)/10^6 PBMCs were detected, with P .05 and a stimulation index of 2 or more. Criteria for individual peptides were the same except that a minimum of 20 SFCs were required for a sample to be counted as positive.
Table 3 lists the 397 PG+ peptides and indicates for each non-grass pollen species whether a matching peptide with either less than 3, less than 2 or zero mismatches could be detected. The immune reactivity of the TG peptide was assessed as the number of TG grass allergic donors (n=20) having in vitro T cell response against the TG peptide.

[2] = test system: PBMCs from Phl p reactive donors; experiment: Cross-reactivity: IL-5 ELISPOT of PBMCs expanded 14 days with individual peptides, response to pollen extracts; format: cell-based, human; conditions: for Controls, Relevant Pool: control: response to relevant pool of cells expanded with the peptide; for Amb p % Reactivity: Amb p (weed) pollen extract; for Amb p % Reactivity / Ant o % Reactivity / Bet v % Reactivity / Cyn d % Reactivity / Lol p % Reactivity / Ole e % Reactivity / Pla l % Reactivity / Poa p % Reactivity / Que a % Reactivity / Phl p % Reactivity: reactivity of extract as percentage of reactivity to the peptide, PBMCs expanded 14 days with the peptide; for Ant o % Reactivity: Ant o (grass) pollen extract; for Bet v % Reactivity: Bet v (tree) pollen extract; for Cyn d % Reactivity: Cyn d (grass) pollen extract; for Lol p % Reactivity: Lol p (grass) pollen extract; for Ole e % Reactivity: Ole e (tree) pollen extract; for Pla l % Reactivity: Pla l (weed) pollen extract; for Poa p % Reactivity: Poa p (grass) pollen extract; for Que a % Reactivity: Que a (tree) pollen extract; for Controls, Irrelevant Pool: control: response to irrelevant pool of cells expanded with the peptide; for % Reactivity, Fra e: reactivity of Fra e (tree) pollen extract as percentage of the reactivity to the peptide, cells expanded with the peptide for 14 days; for Phl p % Reactivity: Phl p (grass) pollen extract
Description: For each peptide, TG allergic donors were selected that reacted to the peptide after expanding PBMCs in vitro with TG extract. […] Reponses to extracts and peptide pools are expressed as the relative fraction of the response to the peptide itself, and capped at 100%.
Each peptide was used to stimulate cells and cross reactivity was tested for extracts from each pollen species. The number of mismatches (# of mm) for each peptide compared to the pollen species and the reactivity of the extracts as a percentage of the reactivity compared to the peptide are shown.
PBMCs from Phl p reactive donors were expanded with individual PG+ peptides as well as peptides derived from major allergens of Phl p for 14 days (peptides shown in Table 10). For each peptide, the mismatch to a corresponding sequence in a non-grass pollen species or a pollen species other than Phl p were determined. Cytokine IL-5 responses were measured in response to the peptide itself, Phl p extract and extracts of the other pollen species. Reponses to extracts and peptide pools were expressed as the relative fraction of the response to the peptide itself and plotted as a function of conservation of the peptide in the different extracts (FIG. 1).

84 (KSLVRAFMWDSGSTV) [compound 84]
NTGA's containing at least one T cell epitope, Th+ (Col 2) [1]: 84
No of PG+ & th+ peptides per NTGA [1]: 4
No of PP & Th+ peptides per NTGA [1]: 3
# Th+ [1]: 0

GELELQFRRVKCKYP
Controls, Relevant Pool [2]: 88 and 53 and 92 and 100

66 (IKRLVEADALKMEII) [compound 66]
# Th+ [1]: 0

57 (LKIVEKYANSSIDIH) [compound 57]
No of PG+ & th+ peptides per NTGA [1]: 0
No of PP & Th+ peptides per NTGA [1]: 0
# Th+ [1]: 0

60 (SDNLGAIVDMKILNH) [compound 60]
No of PG+ & th+ peptides per NTGA [1]: 0
No of PP & Th+ peptides per NTGA [1]: 0
# Th+ [1]: 0

63 (FKSIEKFKIFNTNNL) [compound 63]
# Th+ [1]: 0

71 (TSDLQLVQSDLYTLV) [compound 71]
# Th+ [1]: 0

23 (RYSVCSAVGVLPLSL) [compound 23]
# Th+ [1]: 0

15 (GASTGVYEALELRDG) [compound 15]
# Th+ [1]: 0

78 (GRFKDIFQAVYEADW) [compound 78]
# Th+ [1]: 0

79 (WYEHRLIDDMVAYAL) [compound 79]
NTGA's containing at least one T cell epitope, Th+ (Col 2) [1]: 79
No of PG+ & th+ peptides per NTGA [1]: 1
No of PP & Th+ peptides per NTGA [1]: 0
# Th+ [1]: 0

68 (AAIRFFDHAIGINVP) [compound 68]
# Th+ [1]: 0

SDAKTLVLNIKYTRP
Controls, Relevant Pool [2]: 88 and 100 and 81 and 80

54 (FLDLIVLQIESLNKK) [compound 54]
NTGA's containing at least one T cell epitope, Th+ (Col 2) [1]: 54

35 (RNMVLGKRFFVTPSD) [compound 35]
NTGA's containing at least one T cell epitope, Th+ (Col 2) [1]: 35
No of PG+ & th+ peptides per NTGA [1]: 2
No of PP & Th+ peptides per NTGA [1]: 1
# Th+ [1]: 0

QYAKEIWGITANPVP
Amb p % Reactivity [2]: 83%
Ant o % Reactivity [2]: 2%
Bet v % Reactivity [2]: 73%
Cyn d % Reactivity [2]: 10%
Lol p % Reactivity [2]: 24%
Ole e % Reactivity [2]: 44%
Pla l % Reactivity [2]: 15%
Poa p % Reactivity [2]: 22%
Que a % Reactivity [2]: 32%
Controls, Irrelevant Pool [2]: 7
Controls, Relevant Pool [2]: 100
% Reactivity, Fra e [2]: 12%

NPMTVFWSKMAQSMT
Amb p % Reactivity [2]: 0%
Ant o % Reactivity [2]: 0%
Bet v % Reactivity [2]: 0%
Cyn d % Reactivity [2]: 1%
Lol p % Reactivity [2]: 1%
Ole e % Reactivity [2]: 0%
Phl p % Reactivity [2]: 0%
Pla l % Reactivity [2]: 0%
Poa p % Reactivity [2]: 0%
Que a % Reactivity [2]: 0%
Controls, Irrelevant Pool [2]: 1
Controls, Relevant Pool [2]: 79
% Reactivity, Fra e [2]: 0%

NGSQFFLCTAKTAWL
Bet v % Reactivity [2]: 1%
Ole e % Reactivity [2]: 4% and 5%
Pla l % Reactivity [2]: 1% and 2%
Controls, Relevant Pool [2]: 100 and 89
% Reactivity, Fra e [2]: 3% and 0%

DAYVATLTEALRVIA
Ant o % Reactivity [2]: 95% and 90% and 58% and 68%
Que a % Reactivity [2]: 10% and 8% and 0%
Controls, Relevant Pool [2]: 100 and 96 and 67

DINVGFKAAVAAAAG
Bet v % Reactivity [2]: 0% and 2%
Pla l % Reactivity [2]: 0% and 3% and 10%
Que a % Reactivity [2]: 2% and 0%
Controls, Relevant Pool [2]: 53 and 100 and 95
% Reactivity, Fra e [2]: 0% and 4% and 1%

NAGFKAAVAAAAVVP
Controls, Relevant Pool [2]: 77 and 100

FKAAVAAAAGAPPAD
Amb p % Reactivity [2]: 15%
Ant o % Reactivity [2]: 62%
Bet v % Reactivity [2]: 22%
Cyn d % Reactivity [2]: 31%
Lol p % Reactivity [2]: 68%
Ole e % Reactivity [2]: 39%
Phl p % Reactivity [2]: 2%
Pla l % Reactivity [2]: 2%
Poa p % Reactivity [2]: 26%
Que a % Reactivity [2]: 6%
Controls, Irrelevant Pool [2]: 23
Controls, Relevant Pool [2]: 100
% Reactivity, Fra e [2]: 38%

AVMLTFDNAGMWNVR
Amb p % Reactivity [2]: 2%
Ant o % Reactivity [2]: 9%
Bet v % Reactivity [2]: 0%
Cyn d % Reactivity [2]: 18%
Lol p % Reactivity [2]: 36%
Ole e % Reactivity [2]: 3%
Phl p % Reactivity [2]: 4%
Pla l % Reactivity [2]: 9%
Poa p % Reactivity [2]: 25%
Que a % Reactivity [2]: 0%
Controls, Irrelevant Pool [2]: 0
Controls, Relevant Pool [2]: 100
% Reactivity, Fra e [2]: 0%

Source: patent publication US20160287696A1, “PAN POLLEN IMMUNOGENS AND METHODS AND USES FOR IMMUNE RESPONSE MODULATION” (LA JOLLA INSTITUTE FOR ALLERGY AND IMMUNOLOGY, priority 2013, published 2016)
